Reference: patent US20110124032A1, “Methods and Compositions for Treating Carcinoma Stem Cells” (priority 2008, published 2011)

Tests used:
[1] = system: “Not Thy1+CD24+” Lin− non-tumorigenic cells (NTCs) from MMTV-Wnt-1 breast tumors; assay: In vitro colony assay (clonogenic survival after ionizing radiation), non-tumorigenic cells; assay type: cell-based, mouse; conditions: 10 mM tempol for 15 minutes prior to irradiation, drug then removed; FIG. 4c
Source text: In order to pharmacologically manipulate ROS levels separately in CSCs and NTCs, we employed in vitro culture conditions that allowed both cell populations to produce colonies upon co-culture with irradiated feeder cells. […] When exposed to 2 Gy, a dose commonly administered clinically during daily treatments of breast cancer patients, 2.0-fold+/−0.2 more CSC-enriched colonies survived than NTC colonies. Next, we attempted to radioprotect NTCs by exposing them to the nitroxide antioxidant tempol.
Cells were analyzed, collected by FACS, and injected into recipient mice as described with minor modifications from mouse mammary glands, human breast cancers, human head and neck cancers, and MMTV-Wnt-1 mouse tumors. […] For intracellular ROS analysis, cells were loaded with 10 μM DCF-DA (Invitrogen), incubated at 37° C. for 30 min, and immediately analyzed by flow cytometry. […] DNA damage was evaluated using the single-cell gel electrophoresis assay under alkaline conditions. […] After reverse transcription, genes were pre-amplified (22 cycles) using the same Taqman primers (Applied Biosystems) used for quantification. Products were analyzed using qPCR DynamicArray microfluidic chips (Fluidigm). […] After 24-48 hrs, the media was replaced with serum-free Epicult B, and colonies counted ˜7 days later. […] Levels of significance were determined by Student's t-tests using (=0.05. […]

[2] = system: Thy1+CD24+Lin− CSC-enriched cells from MMTV-Wnt-1 breast tumors; assay: In vitro colony assay (clonogenic survival), CSC-enriched cells; assay type: cell-based, mouse
Source text: Given the overexpression of genes involved in GSH synthesis by CSCs, we wished to assess the sensitivity of these cells to ROS elevation via pharmacologic depletion of GSH. Exposure of Thy1^+CD24^+Lin″ CSC-enriched cells to Buthionine Sulfoximine (BSO), which inhibits glutamate-cysteine ligase, decreased their colony forming ability by approximately three fold (FIG. 4d). Finally, we asked if GSH depletion would radiosensitize CSCs. […] The mechanism leading to low ROS levels in some CSCs appears to be at least partially due to the increased production of free radical scavengers. […] The low ROS subset found in the various stem cell populations may also represent a quiescent subpopulation. […]
Cells were analyzed, collected by FACS, and injected into recipient mice as described with minor modifications from mouse mammary glands, human breast cancers, human head and neck cancers, and MMTV-Wnt-1 mouse tumors. […] For intracellular ROS analysis, cells were loaded with 10 μM DCF-DA (Invitrogen), incubated at 37° C. for 30 min, and immediately analyzed by flow cytometry. […] DNA damage was evaluated using the single-cell gel electrophoresis assay under alkaline conditions. […] After reverse transcription, genes were pre-amplified (22 cycles) using the same Taqman primers (Applied Biosystems) used for quantification. Products were analyzed using qPCR DynamicArray microfluidic chips (Fluidigm). […]

Row | Structure (SMILES) | Clonogenic survival of NTCs after irradiation (radioprotection) [1] | Clonogenic survival after ionizing radiation (radiosensitization) ([2]; 1 mM BSO 24 hour pretreatment, removed prior to irradiation, 3 Gy, FIG. 4e) | Decrease in colony forming ability ([2]; 24 hour pre-treatment with 1 mM BSO, no irradiation, FIG. 4d)
1 | CC1(C)CC(O)CC(C)(C)N1[O] [tempol] | radioprotected NTCs, and resulted in survival levels similar to those seen in the CSC-enriched population |  | 
2 | CCCCS(=N)(=O)CC[C@H](N)C(=O)O (stereo partly drawn) [BSO, L-S,R-Buthionine Sulfoximine] |  | significant radiosensitization | approximately three
